According to US20260226048A1, “MULTI-CYCLIC IRAK AND FLT3 INHIBITING COMPOUNDS AND USES THEREOF” (CHILDREN'S HOSPITAL MEDICAL CENTER, priority 2023, published 2026):

Legend:
Details in all cases: 11-point 3-fold dilution
[1] = target: T1, IRAK1 (Homo sapiens, UniProt P51617); assay: DiscoverX KINOMEscan competition binding assay, IRAK1
T1 construct: purchased Reaction Biology (RBC HotSpot)
Description: (§1) […]. […] As a result, the data report thermodynamic interaction affinities (Kd values), rather than IC50 values that are dependent on ATP concentrations. The assay uses a DNA-tagged version of the protein kinase, and an immobilized ligand bound to a solid support. Compounds that directly or indirectly prevent kinase binding to the immobilized ligand reduce the amount of kinase captured on the solid support, which is detected using an ultra-sensitive qPCR method. Affinity constants reported from the assay have been reported to be independent of the immobilized ligand used that is coupled to the solid support (See supplemental information in Fabian, M. A. et. al., (2005) Nat. Biotechnol. 23, 329-336; Wodicka, L. M. et. al., (2010) Chem. Biol. 17, 1241-1249.)
(§2) Kinase-tagged T7 phage strains were prepared in an E. coli host derived from the BL21 strain. E. coli were grown to log-phase and infected with T7 phage and incubated with shaking at 32° C. until lysis. The lysates were centrifuged and filtered to remove cell debris. The remaining kinases were produced in HEK-293 cells and subsequently tagged with DNA for qPCR detection. Streptavidin-coated magnetic beads were treated with biotinylated small molecule ligands for 30 minutes at room temperature to generate affinity resins for kinase assays. The liganded beads were blocked with excess biotin and washed with blocking buffer (SeaBlock (Pierce), 1% BSA, 0.05% Tween 20, 1 mM DTT) to remove unbound ligand and to reduce non-specific binding. […] Test compounds were prepared as 111× stocks in 100% DMSO. Kds were determined using an 11-point 3-fold compound dilution series with three DMSO control points. All compounds for Kd measurements are distributed by acoustic transfer (non-contact dispensing) in 100% DMSO. The compounds were then diluted directly into the assays such that the final concentration of DMSO was 0.9%. All reactions were performed in polypropylene 384-well plates. Each was a final volume of 0.02 mL. […] The kinase concentration in the eluates was measured by qPCR.
(§3) Binding constants (Kds) were calculated with a standard dose-response curve using the Hill equation. The Hill Slope was set to −1. Curves were fitted using a non-linear least square fit with the Levenberg-Marquardt algorithm.

[2] = target: T2, FLT3 ITD, D835V (Homo sapiens, UniProt P36888, D835V, form not given); assay: DiscoverX KINOMEscan competition binding assay, FLT3 ITD, D835V
T2 construct: fused on or other part: DNA tag for qPCR detection (kinase-tagged T7 phage, or made in HEK-293 cells and then tagged with DNA)
T2 sequence (P36888 1-993 D835V): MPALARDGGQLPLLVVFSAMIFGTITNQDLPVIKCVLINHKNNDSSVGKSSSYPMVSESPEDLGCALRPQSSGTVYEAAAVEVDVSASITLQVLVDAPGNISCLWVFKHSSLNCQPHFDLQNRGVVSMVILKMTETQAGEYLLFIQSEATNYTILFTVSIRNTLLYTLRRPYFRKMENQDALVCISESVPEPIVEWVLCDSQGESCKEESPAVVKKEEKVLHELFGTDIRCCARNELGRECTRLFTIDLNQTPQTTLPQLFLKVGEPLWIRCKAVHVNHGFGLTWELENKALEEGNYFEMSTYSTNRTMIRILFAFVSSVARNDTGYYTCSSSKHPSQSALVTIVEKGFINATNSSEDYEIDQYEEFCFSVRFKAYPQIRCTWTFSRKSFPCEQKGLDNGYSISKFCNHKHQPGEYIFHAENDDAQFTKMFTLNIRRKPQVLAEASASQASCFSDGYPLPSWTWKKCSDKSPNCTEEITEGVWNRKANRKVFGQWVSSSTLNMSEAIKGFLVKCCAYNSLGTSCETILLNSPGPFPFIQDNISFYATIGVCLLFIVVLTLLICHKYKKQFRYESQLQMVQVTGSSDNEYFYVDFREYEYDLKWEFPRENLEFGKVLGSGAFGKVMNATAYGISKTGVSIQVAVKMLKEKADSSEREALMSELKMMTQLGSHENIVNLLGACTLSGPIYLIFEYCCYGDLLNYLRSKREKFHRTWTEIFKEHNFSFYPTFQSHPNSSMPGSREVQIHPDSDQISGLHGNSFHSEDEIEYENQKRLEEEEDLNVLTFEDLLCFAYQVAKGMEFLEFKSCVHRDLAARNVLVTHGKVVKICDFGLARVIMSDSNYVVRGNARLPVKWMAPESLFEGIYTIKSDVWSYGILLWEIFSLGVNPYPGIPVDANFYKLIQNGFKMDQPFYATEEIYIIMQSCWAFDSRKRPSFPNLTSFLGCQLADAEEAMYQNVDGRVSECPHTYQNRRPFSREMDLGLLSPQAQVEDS
Description: as §1, §2, §3

[3] = target: T3, FLT3 D835V (Homo sapiens, UniProt P36888, D835V); assay: DiscoverX KINOMEscan competition binding assay, FLT3 D835V
T3 construct: purchased DiscoverX (KINOMEscan); host or cells: E. coli BL21-derived host (T7 phage) or HEK-293
T3 sequence (P36888 27-993 D835V): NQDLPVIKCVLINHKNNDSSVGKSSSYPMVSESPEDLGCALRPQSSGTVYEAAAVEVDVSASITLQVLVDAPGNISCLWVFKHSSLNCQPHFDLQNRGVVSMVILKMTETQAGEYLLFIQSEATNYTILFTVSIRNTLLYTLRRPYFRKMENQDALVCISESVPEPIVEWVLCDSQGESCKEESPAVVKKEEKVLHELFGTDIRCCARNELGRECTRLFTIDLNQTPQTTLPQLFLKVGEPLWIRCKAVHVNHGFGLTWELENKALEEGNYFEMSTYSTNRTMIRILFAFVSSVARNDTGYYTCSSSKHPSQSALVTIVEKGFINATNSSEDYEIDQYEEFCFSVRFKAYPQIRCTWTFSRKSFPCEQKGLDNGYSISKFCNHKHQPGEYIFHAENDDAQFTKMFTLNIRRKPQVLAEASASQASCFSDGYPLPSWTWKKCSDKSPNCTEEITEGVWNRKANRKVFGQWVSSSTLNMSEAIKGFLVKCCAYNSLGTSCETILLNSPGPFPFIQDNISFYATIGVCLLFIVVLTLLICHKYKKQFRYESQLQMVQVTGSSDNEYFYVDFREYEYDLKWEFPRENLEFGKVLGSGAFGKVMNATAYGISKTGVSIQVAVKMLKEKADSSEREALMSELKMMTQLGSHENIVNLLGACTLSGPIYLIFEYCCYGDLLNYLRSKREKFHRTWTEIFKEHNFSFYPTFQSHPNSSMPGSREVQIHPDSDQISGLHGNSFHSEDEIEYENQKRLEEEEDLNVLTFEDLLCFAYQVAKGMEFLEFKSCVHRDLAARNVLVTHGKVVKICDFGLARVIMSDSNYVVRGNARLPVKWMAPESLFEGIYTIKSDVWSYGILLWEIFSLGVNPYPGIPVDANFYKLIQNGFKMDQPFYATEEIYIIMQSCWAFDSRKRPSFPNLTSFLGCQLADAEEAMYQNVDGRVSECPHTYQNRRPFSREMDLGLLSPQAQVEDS
Description: as §1, §2, §3

T1 sequence (P51617 whole entry): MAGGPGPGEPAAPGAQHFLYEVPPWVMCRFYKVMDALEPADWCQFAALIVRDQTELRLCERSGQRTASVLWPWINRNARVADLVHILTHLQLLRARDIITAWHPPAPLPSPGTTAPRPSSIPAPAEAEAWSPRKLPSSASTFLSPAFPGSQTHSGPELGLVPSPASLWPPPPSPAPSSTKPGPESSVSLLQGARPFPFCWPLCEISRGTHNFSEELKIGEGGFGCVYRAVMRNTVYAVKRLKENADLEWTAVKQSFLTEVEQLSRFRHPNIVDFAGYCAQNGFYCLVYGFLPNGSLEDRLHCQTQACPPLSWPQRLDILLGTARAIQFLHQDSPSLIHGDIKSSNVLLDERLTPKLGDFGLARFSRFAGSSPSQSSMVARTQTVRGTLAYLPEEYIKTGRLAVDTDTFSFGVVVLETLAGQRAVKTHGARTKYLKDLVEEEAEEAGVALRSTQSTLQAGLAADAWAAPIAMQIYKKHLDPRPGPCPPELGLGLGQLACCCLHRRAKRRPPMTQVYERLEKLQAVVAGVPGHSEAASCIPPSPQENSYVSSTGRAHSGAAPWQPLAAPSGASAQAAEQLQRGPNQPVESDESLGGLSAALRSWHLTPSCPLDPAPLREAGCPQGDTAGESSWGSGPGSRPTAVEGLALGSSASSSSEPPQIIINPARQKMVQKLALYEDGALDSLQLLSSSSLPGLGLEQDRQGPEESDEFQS

**Q.** COc1cc2ncc(-c3nc(N[C@H]4CNCC[C@@H]4F)ncc3F)n2nc1C1CC1 [Compound 1a, 4-(6-cyclopropyl-7-methoxyimidazo[1,2-b]pyridazin-3-yl)-5-fluoro-N-((3S,4S)-4-fluoropiperidin-3-yl)pyrimidin-2-amine] was tested. Which Kd [1] did it give?
**A.** < 0.17 nM

**Q.** And the Kd [2]?
**A.** < 0.17 nM

**Q.** And the Kd [3]?
**A.** < 0.17 nM

**Q.** What does the source list for FC(F)COc1cc2ncc(-c3ccnc(N[C@H]4CNCC[C@@H]4F)n3)n2nc1C1CC1 [Compound 4a, 4-(6-cyclopropyl-7-(2,2-difluoroethoxy)imidazo[1,2-b]pyridazin-3-yl)-N-((3 S,4S)-4-fluoropiperidin-3-yl)pyrimidin-2-amine]?
**A.** Kd [1]: 7.8 nM; Kd [2]: < 0.17 nM; Kd [3]: < 0.17 nM

**Q.** COc1cc2ncc(-c3nc(N[C@H]4CNCC[C@@H]4F)ncc3F)n2nc1C(C)(C)O [Compound 45a, 2-(3-(5-fluoro-2-(((3S,4S)-4-fluoropiperidin-3-yl)amino)pyrimidin-4-yl)-7-methoxyimidazo[1,2-b]pyridazin-6-yl)propan-2-ol] was tested. Which Kd [1] did it give?
**A.** 1.6 nM

**Q.** And the Kd [2]?
**A.** 0.23 nM

**Q.** What about the Kd [3] of the same compound?
**A.** 0.87 nM

**Q.** For CC(C)(O)c1ccc2ncc(-c3nc(N[C@H]4CNCC[C@@H]4F)ncc3F)n2c1 [Compound 46a, 2-(3-(5-fluoro-2-(((3S,4S)-4-fluoropiperidin-3-yl)amino)pyrimidin-4-yl)imidazo[1,2-a]pyridin-6-yl)propan-2-ol], which Kd [1] is on record?
**A.** 0.7 nM

**Q.** What about the Kd [2] of the same compound?
**A.** < 0.17 nM

**Q.** What about the Kd [3] of the same compound?
**A.** 0.53 nM

**Q.** How did the Kd [1] turn out when COc1cc2ncc(-c3nc(N[C@H]4CNCC[C@@H]4F)ncc3F)n2nc1C1COC1 [Compound 92a, 5-fluoro-N-((3S,4S)-4-fluoropiperidin-3-yl)-4-(7-methoxy-6-(oxetan-3-yl)imidazo[1,2-b]pyridazin-3-yl)pyrimidin-2-amine] was run?
**A.** 0.49 nM

**Q.** What about the Kd [2] of the same compound?
**A.** < 0.17 nM

**Q.** What about the Kd [3] of the same compound?
**A.** < 0.17 nM

**Q.** Which Kd [1] does the source give for CC(C)(O)c1cn2c(-c3nc(N[C@H]4CNCC[C@@H]4F)ncc3F)cnc2cn1 [Compound 100a, 2-(3-(5-fluoro-2-(((3S,4S)-4-fluoropiperidin-3-yl)amino)pyrimidin-4-yl)imidazo[1,2-a]pyrazin-6-yl)propan-2-ol] here?
**A.** 4.5 nM

**Q.** What about the Kd [2] of the same compound?
**A.** 0.19 nM

**Q.** And the Kd [3]?
**A.** 2.1 nM

**Q.** For COc1cc2ncc(-c3nc(N[C@H]4CNCC[C@@H]4F)ncc3F)n2nc1N1CCCS1(=O)=O [Compound 112a, 2-(3-(5-fluoro-2-(((3S,4S)-4-fluoropiperidin-3-yl)amino)pyrimidin-4-yl)-7-methoxyimidazo[1,2-b]pyridazin-6-yl)isothiazolidine 1,1-dioxide], which Kd [1] is on record?
**A.** 1.1 nM

**Q.** What about the Kd [2] of the same compound?
**A.** < 0.17 nM

**Q.** What about the Kd [3] of the same compound?
**A.** < 0.17 nM
